Source: patent US6872805B2 (Bristol-Myers Squibb Company, priority 2000, dated 2005)

Target: T1, human leukocyte elastase (Homo sapiens, UniProt P08246)
T1 sequence (P08246 30-267): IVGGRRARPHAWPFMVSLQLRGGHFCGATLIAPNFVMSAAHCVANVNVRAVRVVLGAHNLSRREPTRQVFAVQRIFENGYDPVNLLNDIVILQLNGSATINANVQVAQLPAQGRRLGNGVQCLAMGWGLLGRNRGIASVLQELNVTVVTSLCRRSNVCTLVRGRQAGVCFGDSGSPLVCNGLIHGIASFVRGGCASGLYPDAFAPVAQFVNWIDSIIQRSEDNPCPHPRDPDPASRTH
Experiment: Specificity assay, human leukocyte elastase
Assay type: biochemical
Conditions: read-out: HLE
Description: The specificities of compounds of the present invention were determined against a variety of serine proteases: human leukocyte elastase, porcine pancreatic elastase and bovine pancreatic α-chymotrypsin and one cysteine protease: human liver cathepsin B. In all cases a 96-well plate format protocol using calorimetric […] (pNA) substrate specific for each enzyme was used as described previously (Patent WO 00/09543) with some modifications.
Each assay included a 1 h enzyme-inhibitor pre-incubation at RT followed by addition of substrate and hydrolysis to ˜30% conversion as measured on a Spectramax Pro microplate reader. Compound concentrations varied from 100 to 0.4 μM depending on their potency.
The final conditions and protocol for each assay was as reported previously (Patent WO 00/09543) with the inclusion of an additional assay: • 50 mM Tris-HCl pH 8, 0.5M Na2SO4, 50 mM NaCl, 0.1 mM EDTA, 3% DMSO, 0.01% Tween-20 with 133 μM succ-AAA-PNA and 20 nM Elastase
The percentage of inhibition was calculated using the formula: [1−((UVinh−UVblank)/(UVctl−UVblank))]×100

C=CC1C[C@]1(NC(=O)[C@@H]1C[C@@H](Oc2cc(-c3ccccc3)nc3cc(OC)ccc23)CN1C(=O)C(NC(=O)OC(C)(C)C)C(C)(C)C)C(=O)NS(=O)(=O)c1ccc(NC(C)=O)cc1 (stereo partly shown) [Compound 58]
IC50: 35 µM
